Consider 1 molecule from US20040072146A1, “Mechanism of mitochondrial membrane permeabilization by HIV-1 Vpr, mimetics of Vpr and methods of screening active molecules having the ability to alter and/or prevent and/or mimic the interaction of Vpr with ANT” (priority 2000, published 2004).

Each structure is given as a SMILES string.

In assay [1] the target is T1, ANT (Rattus norvegicus, UniProt Q05962).
T1 construct: from tissue
It is filed as binding. Conditions: purified detergent-solubilized ANT. From the text: A Plasma surface resonance sensorgrams of the interaction of ANT with Vpr52-96, Vpr52-96[R73A, 80A] or an irrelevant control (Co).
B. Langmuir isotherm determined at different concentrations of ANT on sensorgrams corrected by substraction of the blank (sensorgrams obtained with Vpr52-96[R73A, 80A]).

The next assay deals with T2, ANT-proteoliposomes (Rattus norvegicus, UniProt Q05962).
T2 construct: ANT is purified from rat heart and reconstituted in liposomes; from tissue; host or cells: rat heart (ANT)
T2 sequence (Q05962 1-298): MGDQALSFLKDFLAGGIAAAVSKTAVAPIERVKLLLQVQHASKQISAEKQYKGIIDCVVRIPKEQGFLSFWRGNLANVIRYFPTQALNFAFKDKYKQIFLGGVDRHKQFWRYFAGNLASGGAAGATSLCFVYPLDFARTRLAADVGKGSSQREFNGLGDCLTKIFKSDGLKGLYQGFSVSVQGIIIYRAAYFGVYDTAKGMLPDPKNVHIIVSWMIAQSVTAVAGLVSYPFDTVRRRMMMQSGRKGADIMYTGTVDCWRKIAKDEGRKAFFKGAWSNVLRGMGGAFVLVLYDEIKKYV
Nature of the assay: FITC-labeled Vpr52-96 binding onto ANT-liposomes and plain liposomes. The protocol: A. Dose-response curve of FITC-labeled Vpr52-96 binding onto ANT-liposomes and plain liposomes.
B. Binding of FITC-Vpr52-96 (2 μM) to plain liposomes, ANT-proteoliposomes, in the presence or absence of BA (50 μM).

Assay [2] has as its target T1, ANT. Nature of the assay: Single channel recordings in planar lipid bilayers. It is filed as biochemical. As to the method:
FIG. 3 presents electrophysiological properties of Vpr52-96 and ANT in planar lipid bilayers. Current fluctuations of Vpr52-96 (80 nM, +150 mV), Vpr52-96(0.4 nM, +100 mV), ANT (1 nM, +110 mV) and Vpr52-96+ANT (0.4:1 nM, +115 mV) and associated histograms (right) of conductance levels are shown.
Current fluctuations of Vpr52-96 (80 nM, +150 mV), Vpr52-96 (0.4 nM, +100 mV), ANT (1 nM, +110 mV) and Vpr52-96+ANT (0.4:1 nM, 115 mV) after incorporation into synthetic membranes. Single channel recordings were performed using the “Tip-Dip” technique. The recordings shown are representative for at least three independent determinations.
B. Statistical analysis of conductances obtained in A. Results were expressed as current distributions at different voltages. Conductances (γ; in picosiemens, pS) are calculated by division of current by voltage.

For assay [3], the system named is purified mitochondria. Nature of the assay: Respirometry of purified mitochondria, respiratory control. It is filed as biochemical. The following applies: 1 μM peptide, 10 min. The protocol: A. Oxygen consumption curves after addition of the indicated agents. Trace a: control mitochondria (no pretreatment). Trace b: mitochondria pretreated for 10 min with 1 μM Vpr52-96. Numbers along the traces are nmol of O2 consumed min^−1 mg^31 1 protein.
B. Respiratory control (RC) values calculated by dividing oxygen consumption in the presence of CCCP by that measured with oligomycin (determined as in A), 10 min after addition of 1 μM of Vpr-derived peptides (mean values of 3 determinations).

Assay [4] relates to purified mitochondria. Nature of the assay: Inner versus outer mitochondrial membrane permeabilization (NADH oxidation, cytochrome c oxidation). It counts as biochemical. As to the method: A. Respirometry performed after addition of NADH and Vpr52-96 (1 μM). Numbers along the traces are nmol of O2 consumed min^−1 mg^−1 protein.
B. Kinetics of Vpr52-96 induced inner membrane permeabilization to NADH and outer membrane permeabilization to reduced cytochrome c. Oxygen consumption was determined in the presence of 2 mM NADH (full squares) as in A (traces C-D) and cytochrome c (15 μM) oxidation (open circles) was spectrofluorometrically measured, as described Rustin et al., 1994). The 100% value of cytochrome c oxidation was determined by addition of 2.5 mM laurylmaltoside.
Oxygen consumption of purified mitochondria was measured as in FIG. 5 after addition of succinate+CCCP or NADH, as indicated.

The test system of a further assay is isolated mitochondria. Nature of the assay: Electron microscopy of isolated mitochondria (matrix swelling). Conditions: 3 μM Vpr52-96, 5 or 15 min. It counts as biochemical. An excerpt:
C. Ultrastructural effects of Vpr on isolated mitochondria.

Assay [5] concerns purified mitochondria. Nature of the assay: FITC-Vpr52-96 binding to purified mitochondria. The following applies: 0.5 μM FITC-Vpr52-96. The protocol: Mitochondria were left unstained (insert in Co.) or exposed to the ΔΨm-insensitive mitochondrial dye MitoTracker® Green (75 nM), alone (MTG) or with 0.5 μM of FITC-Vpr52-96; green fluorescence), in combination with the ΔΨm-sensitive mitochondrial dye MitoTracker® Red (CMXRos; red Fluorescence) followed by cytofluorometric two-color analysis. Numbers indicate the percentage of mitochondria in each quadrant.
Mitochondria were incubated with the indicated inhibitors, and then exposed for 30 min at RT with 5 μM biotinylated Vpr52-96. Mitochondria were lysed either after incubation with biotinylated Vpr52-96 (upper panel) or lysed before (lower panel) with Tris/HCl as described in materials and methods. Biotinylated Vpr52-96 complexed with its mitochondrial ligands was retained on avidin-agarose and subjected to immunoblot detection of ANT.

The target in assay [6] is T1, ANT. The following applies: surface plasmon resonance, Jacotot et al. 2000; cited from earlier work.

Consider `CC[C@H](C)[C@H](NC(=O)[C@H](C)NC(=O)[C@H](CCC(=O)O)NC(=O)[C@@H](NC(=O)CNC(=O)[C@H](C)NC(=O)[C@H](Cc1c[nH]c2ccccc12)NC(=O)[C@@H](NC(=O)[C@@H](N)CC(=O)O)[C@@H](C)O)C(C)C)C(=O)N[C@H](C(=O)N[C@@H](CCCNC(=N)N)C(=O)N[C@H](C(=O)N[C@@H](CC(C)C)C(=O)N[C@@H](CCC(N)=O)C(=O)N[C@@H](CCC(N)=O)C(=O)N[C@@H](CC(C)C)C(=O)N[C@@H](CC(C)C)C(=O)N[C@@H](Cc1ccccc1)C(=O)N[C@H](C(=O)N[C@@H](Cc1c[nH]cn1)C(=O)N[C@@H](Cc1ccccc1)C(=O)N[C@@H](CCCNC(=N)N)C(=O)N[C@H](C(=O)NCC(=O)N[C@@H](CS)C(=O)N[C@@H](CCCNC(=N)N)C(=O)N[C@@H](Cc1c[nH]cn1)C(=O)N[C@@H](CO)C(=O)N[C@@H](CCCNC(=N)N)C(=O)N[C@H](C(=O)NCC(=O)N[C@H](C(=O)N[C@H](C(=O)N[C@@H](CCCNC(=N)N)C(=O)N[C@@H](CCC(N)=O)C(=O)N[C@@H](CCCNC(=N)N)C(=O)N[C@@H](CCCNC(=N)N)C(=O)N[C@@H](C)C(=O)N[C@@H](CCCNC(=N)N)C(=O)N[C@@H](CC(N)=O)C(=O)NCC(=O)N[C@@H](C)C(=O)N[C@@H](CO)C(=O)N[C@@H](CCCNC(=N)N)C(=O)N[C@@H](CO)C(=O)O)[C@@H](C)O)C(C)C)[C@@H](C)CC)[C@@H](C)CC)[C@@H](C)CC)[C@@H](C)CC)[C@@H](C)CC` [Vpr52-96], for which the “binding of ANT to immobilized peptide (sensorgram)” value on ANT [1] is “exhibits an increase of binding as a function of time and a positive signal at the start of the dissociation phase”. At ANT-proteoliposomes, the “Vpr52-96 binding to membranes, ANT liposomes versus protein-free liposomes” value was “greatly facilitated in liposomes in which ANT has been reconstituted as compared to protein-free liposomes”. The “conductance of channels formed by ANT and Vpr52-96” value at ANT [2] (Vpr52-96+ANT 0.4:1 nM) worked out at 190±2 pS. Moreover, at ANT [2] (as restated in Example 4), the “mean conductance of Vpr52-96-ANT channels without any further addition” value is 190±2. The “conductance of channels formed by Vpr52-96 alone” value on ANT [2] (high doses (80 nM), no ANT) amounted to 55±2 pS. In addition, on ANT [2] (low doses (<1 nM)), the “channel formation in planar lipid bilayers” value is reported as “incapable of forming channels, unless ANT was present”. Also, the “effect on respiratory control (RC)” value in the assay with purified mitochondria [3] is given as “exhibited a gross deficiency in respiratory control (RC)”. Further, in the assay with purified mitochondria [3] (5.3 in control mitochondria), the “respiratory control (RC) value” worked out at 1.1. Besides, the “order of inner and outer MMP” value in the assay with purified mitochondria [4] is “causes inner MMP well before OM becomes permeable to exogenous cytochrome c”. The “time to maximal NADH oxidation” value in the assay with purified mitochondria [4] (Vpr52-96 1 μM, 2 mM NADH) was found to be 10 min. Besides, the “ultrastructural effect on mitochondria” value in the assay on isolated mitochondria is given as “exhibited matrix swelling before OM rupture became apparent”. The “Vpr52-96 binding to mitochondria relative to ΔΨm loss” value in the assay on purified mitochondria [5] is recorded as “binds mitochondria before inducing ΔΨm loss”. Further, at ANT [6], the “affinity of Vpr C-terminus for purified ANT” value is “high affinity in the nanomolar range”.
